Columns and labels:
[1] = system: Blumeria graminis f. sp. tritici; experiment: Fungicidal activity against Blumeria graminis f. sp. triticii inoculated on wheat seedlings followed by 31.3 ppm compound application 7 days after fungal inoculation assessed as wheat powdery mildew disease controlling activity relative to untreated control; format: functional
[2] = system: Golovinomyces cichoracearum; experiment: Fungicidal activity against Golovinomyces cichoracearum in cucumber seedlings assessed as cucumber powdery mildew disease controlling activity at 7.8 ppm applied through preventive application relative to untreated control; format: functional
[3] = system: Blumeria graminis f. sp. tritici; experiment: Fungicidal activity against Blumeria graminis f. sp. triticii inoculated on wheat seedlings followed by 500 ppm compound application 7 days after fungal inoculation assessed as wheat powdery mildew disease controlling activity relative to untreated control; format: functional
[4] = system: Golovinomyces cichoracearum; experiment: Fungicidal activity against Golovinomyces cichoracearum in cucumber seedlings assessed as cucumber powdery mildew disease controlling activity at 31.3 ppm applied through preventive application relative to untreated control; format: functional
[5] = system: Blumeria graminis f. sp. tritici; experiment: Fungicidal activity against Blumeria graminis f. sp. triticii inoculated on wheat seedlings followed by 125 ppm compound application 7 days after fungal inoculation assessed as wheat powdery mildew disease controlling activity relative to untreated control; format: functional
[6] = system: Golovinomyces cichoracearum; experiment: Fungicidal activity against Golovinomyces cichoracearum in cucumber seedlings assessed as cucumber powdery mildew disease controlling activity at 500 ppm applied through preventive application relative to untreated control; format: functional
[7] = system: Blumeria graminis f. sp. tritici; experiment: Fungicidal activity against Blumeria graminis f. sp. triticii inoculated on wheat seedlings followed by 7.8 ppm compound application 7 days after fungal inoculation assessed as wheat powdery mildew disease controlling activity relative to untreated control; format: functional
[8] = system: Blumeria graminis f. sp. tritici; experiment: Fungicidal activity against Blumeria graminis f. sp. triticii inoculated on wheat seedlings followed by 400 ppm compound application 7 days after fungal inoculation assessed as wheat powdery mildew disease controlling activity relative to untreated control; format: functional
[9] = system: Blumeria graminis f. sp. tritici; experiment: Fungicidal activity against Blumeria graminis f. sp. triticii inoculated on wheat seedlings followed by 100 ppm compound application 7 days after fungal inoculation assessed as wheat powdery mildew disease controlling activity relative to untreated control; format: functional
[10] = system: Oculimacula yallundae; experiment: Fungicidal activity against Oculimacula yallundae inoculated oat seeds followed by transfer of inoculated oat seedlings on foot of wheat seedlings followed by 100 ppm compound spraying assessed as degree of wheat eye spot infection (reference value: 82.9 %); format: functional
[11] = system: Oculimacula yallundae; experiment: Fungicidal activity against Oculimacula yallundae inoculated oat seeds followed by transfer of inoculated oat seedlings on foot of wheat seedlings followed by 400 ppm compound spraying assessed as degree of wheat eye spot infection (reference value: 82.9 %); format: functional
[12] = system: Oculimacula yallundae; experiment: Fungicidal activity against Oculimacula yallundae assessed as inhibition of mycelial growth; format: functional, organism-based
[13] = system: Oculimacula yallundae; experiment: Fungicidal activity against Oculimacula yallundae inoculated oat seeds followed by transfer of inoculated oat seedlings on foot of wheat seedlings followed by 400 ppm compound spraying assessed as wheat eye spot disease control activity relative to untreated control; format: functional
[14] = system: Oculimacula yallundae; experiment: Fungicidal activity against Oculimacula yallundae inoculated oat seeds followed by transfer of inoculated oat seedlings on foot of wheat seedlings followed by 100 ppm compound spraying assessed as wheat eye spot disease control activity relative to untreated control; format: functional
[15] = system: Blumeria graminis f. sp. tritici; experiment: Fungicidal activity against Blumeria graminis f. sp. triticii inoculated on wheat seedlings followed by 400 ppm compound application 7 days after fungal inoculation assessed as infected leaf area (reference value: 37.8%); format: functional
[16] = system: Blumeria graminis f. sp. tritici; experiment: Fungicidal activity against Blumeria graminis f. sp. triticii inoculated on wheat seedlings followed by 100 ppm compound application 7 days after fungal inoculation assessed as infected leaf area (reference value: 37.8%); format: functional
[17] = system: Golovinomyces cichoracearum; experiment: Fungicidal activity against Golovinomyces cichoracearum in cucumber seedlings assessed as cucumber powdery mildew disease controlling activity at 125 ppm applied through preventive application relative to untreated control; format: functional
[18] = system: Blumeria graminis f. sp. tritici; experiment: Fungicidal activity against Blumeria graminis f. sp. triticii inoculated on wheat seedlings followed by 125 ppm compound application 7 days after fungal inoculation assessed as infected leaf area (reference value: 37.8%); format: functional

| Compound | Activity [2] [%] | Activity [3] [%] | Activity [4] [%] | Activity [5] [%] | further results |
| --- | --- | --- | --- | --- | --- |
| CON=C(c1ccon1)c1ccccc1COc1cc(Cl)ccc1Cl | 90 |  |  |  | Activity [1]: 90% |
| CON=C(c1ccon1)c1ccccc1COc1c(Cl)cccc1Cl |  | <90 | 90 |  |  |
| CON=C(c1ccon1)c1ccccc1COc1ccc(Cl)c(Cl)c1 |  |  | 90 | 90 |  |
| CON=C(c1ccon1)c1ccccc1COc1cc(Cl)cc(Cl)c1Cl |  | <90 |  |  | Activity [6]: 90% |
| CON=C(c1ccon1)c1ccccc1COc1cccc(C)c1C | 90 |  |  | 90 |  |
| CON=C(c1ccon1)c1ccccc1COc1ccc(C)cc1C | 90 |  |  | 90 |  |
| CON=C(c1ccon1)c1ccccc1COc1cc(C)ccc1C | 90 |  |  |  | Activity [7]: 90%; Activity [8]: 86%; Activity [9]: 78%; Activity [10]: 36.9%; Activity [11]: 19.8%; EC50 [12]: 1.05 ppm; Activity [13]: 76%; Activity [14]: 56%; Activity [15]: 5.8%; Activity [16]: 9.3% |
| CON=C(c1ccon1)c1ccccc1COc1c(C)cccc1C |  |  |  | 90 | Activity [17]: 90% |
| CON=C(c1ccon1)c1ccccc1COc1ccc(C)c(C)c1 |  |  | 90 | 90 |  |
| CON=C(c1ccon1)c1ccccc1COc1cc(C)cc(C)c1C | 90 |  |  |  | Activity [7]: 90%; EC50 [12]: 3.9 ppm |
| CON=C(c1ccon1)c1ccccc1COc1ccc(Cl)cc1C | 90 |  |  |  | Activity [1]: 90% |
| Cc1ccc(C)c(OCc2ccccc2C(=NO)c2ccon2)c1 |  | <90 |  |  | Activity [17]: 90% |
| CCON=C(c1ccon1)c1ccccc1COc1cc(C)ccc1C |  | <90 |  |  | Activity [6]: <90% |
| CCCON=C(c1ccon1)c1ccccc1COc1cc(C)ccc1C |  | <90 |  |  | Activity [6]: <90% |
| Cc1ccc(C)c(OCc2ccccc2C(=NOC(C)C)c2ccon2)c1 |  | <90 |  |  | Activity [6]: <90% |
| C=CCON=C(c1ccon1)c1ccccc1COc1cc(C)ccc1C |  | <90 |  |  | Activity [6]: <90% |
| CNC(=O)/C(=N/OC)c1ccccc1COc1cc(C)ccc1C |  |  |  |  | Activity [8]: 63%; Activity [9]: 69%; Activity [10]: 66.5%; Activity [11]: 36.7%; EC50 [12]: 1.09 ppm; Activity [13]: 56%; Activity [14]: 20%; Activity [15]: 15.5%; Activity [16]: 13% |
| CON=C(c1ccon1)c1ccccc1COc1ccc(Cl)cc1 | 90 | 90 |  |  |  |
| CON=C(c1ccon1)c1ccccc1COc1ccccc1C | 90 |  |  |  | Activity [7]: 90%; EC50 [12]: 1.42 ppm |
| CON=C(c1ccon1)c1ccccc1COc1cccc(C)c1 |  |  | 90 | 90 |  |

| Compound | Activity [2] [%] | Activity [3] [%] | Activity [4] [%] | Activity [5] [%] | further results |
| --- | --- | --- | --- | --- | --- |
| CON=C(c1ccon1)c1ccccc1COc1ccc(C)cc1 | 90 |  |  | 90 |  |
| CCc1ccccc1OCc1ccccc1C(=NOC)c1ccon1 |  |  | 90 | 90 |  |
| CON=C(c1ccon1)c1ccccc1COc1ccccc1OC |  | <90 |  |  | Activity [17]: 90% |
| CON=C(c1ccon1)c1ccccc1COc1ccccc1Br | 90 |  |  | 90 |  |
| CON=C(c1ccon1)c1ccccc1COc1ccccc1C(F)(F)F |  | 90 | 90 |  |  |
| CON=C(c1ccon1)c1ccccc1COc1ccccc1[N+](=O)[O-] |  | <90 |  |  | Activity [6]: <90% |
| CON=C(c1ccon1)c1ccccc1COc1ccc(F)cc1F | 90 |  |  | 90 |  |
| CON=C(c1ccon1)c1ccccc1COc1cc(F)ccc1F |  |  | 90 | 90 |  |
| CON=C(c1ccon1)c1ccccc1COc1ccc(Cl)cc1Cl | 90 | <90 |  |  |  |
| CON=C(c1ccon1)c1ccccc1Oc1ccccc1 |  | 90 | 90 |  |  |
| CON=C(c1ccon1)c1ccccc1OCc1ccccc1 |  |  |  |  | Activity [17]: 90% |
| CON=C(c1ccon1)c1ccccc1COc1ccccc1 |  | 90 | 90 |  |  |
| CON=C(c1ccon1)c1ccccc1COc1ccc(F)cc1 |  | 90 | 90 |  |  |
| CON=C(c1ccon1)c1ccccc1COc1cccc(F)c1 |  | 90 |  |  | Activity [17]: 90% |
| CON=C(c1ccon1)c1ccccc1COc1ccccc1F |  |  | 90 | 90 |  |
| CON=C(c1ccon1)c1ccccc1COc1ccccc1Cl | 90 |  |  | 90 |  |
| CON=C(c1ccon1)c1ccccc1COc1cccc(Cl)c1 |  | 90 | 90 |  |  |
| CCCN(CCOc1c(Cl)cc(Cl)cc1Cl)C(=O)n1ccnc1 [PROCHLORAZ] |  |  |  |  | Activity [10]: 63.5%; Activity [11]: 28.3%; EC50 [12]: 0.04 ppm; Activity [13]: 66%; Activity [14]: 23% |
| CC(C)(C)C(=O)C(Oc1ccc(Cl)cc1)n1cncn1 (stereo not drawn) [TRIADIMEFON] |  |  |  | 97 | Activity [18]: 1.4% |
